These results are taken from patent US5866574A, “Pancreatitis remedy” (Kyowa Hakko Kogyo Co., Ltd., priority 1997, dated 1999).

Structures can show the parent of a compound that is named as a salt.

One series concerns adenosine uptake. Conditions: Nucleosides & Nucleotides, 10, 975-982 (1991); cited from earlier work.
The subject of series [1] is murine cerulein pancreatitis. The series is described as follows: effects on murine cerulein pancreatitis (serum amylase, lipase, GPT). Type of series: in vivo, murine (female BALB/C mice). Conditions: mean±SEM. Here is the method:
Test of the effects on murine cerulein pancreatitis
Experiment was conducted in accordance with the method described in Digestive Diseases and Science, 37, 274-279 (1992). Female BALB/C mice weighing 17 to 24 g were fasted for 16 hours. Water was provided ad libitum. Acute pancreatitis was induced by the administration of seven intraperitoueally injections of cerulein (50 μg/kg) at hourly intervals. Blood was drawn from abdominal vein, 3, 6, and 9 hours after the first injection of cerulein in case of Compound 1, Compound 2 and compound 3, while in case of Compound 4, blood was drawn therefrom 7 hours after the first injection of cerulein. Blood samples were centrifuged at 4° C. and 3,000 rpm for 10 minutes, and serum was separated. Serum amylase (Amy), lipase (Lip), and glutamic pyruvic transaminase (GPT) activities were measured. For Compound 1, Compound 2 and Compound 3, serum Amy was assayed with AU500/550 specific reagent "Katayama" Amy test(Katayama Chemical Industry Co., Ltd.); for Compound 4, serum Amy was assayed with "Rikitech P-AMY EPS" of BM pancreas-related reagent series (Boehringer Mannheim K. K.). Serum GPT was assayed with "Katayama" GPT test (Katayama Chemical Industry, Co., Ltd.). Serum Lip was assayed with an auto-analyzer reagent "Kyowa" Determiner Lipase (Kyowa Medex, Co., Ltd.). Compound 1, Compound 2, and Compound 3 were suspended in 0.5% methyl cellulose, and […] before the first injection of cerulein, the resulting suspension was orally given at a dose of 10 ml/kg. The solvent (0.5% methyl cellulose) was similarly given to a control group. Compound 4 was dissolved in distilled water, which was adjusted to pH 2 with 0.1N HCl, and then the resulting solution was adjusted to pH 4.5 with 0.1N sodium hydroxide. Compound 4 was orally administered one hour before the first injection of cerulein. The solvent (distilled water for injections, after adjustment to pH 4.5 with 0.1N HCl) was similarly given to a control group.
Results are expressed as means±SEM where appropriate. Difference between normal group and control group were evaluated using the Wilcoxon's rank sum test. And for differences between control group and test compound-treated group, the Steel's test was used for Compound 1 and the Wilcoxon's rank sum test was used for Compounds 2, Compound 3 and Compound 4.
The effects of Compound 1, Compound 2 and Compound 3 on serum Amy, serum Lip and serum GPT are shown in Tables 2, 3 and 4; and the effect of Compound 4 are shown in Table 5.

The test system of another series is dd-strain male mice. The series is described as follows: Acute Toxicity Test. As to conditions: mortality seven days after administration. Type of series: in vivo. The text has this: Test compounds were orally or intraperitoneally administered to groups of dd-strain male mice weighing 20±1 g, each group consisting of three mice.
Where [2] appears, read: 300 mg/kg oral, 3 h after the first injection of cerulein.
Setting [3] is: 300 mg/kg oral, 6 h after the first injection of cerulein.
Where [4] appears, read: 300 mg/kg oral, 9 h after the first injection of cerulein.
Where [5] appears, read: 10 mg/kg oral, 3 h after the first injection of cerulein.
Setting [6] is: 10 mg/kg oral, 6 h after the first injection of cerulein.
The mark [7] stands for this setting: 10 mg/kg oral, 9 h after the first injection of cerulein.
The mark [8] stands for this setting: 30 mg/kg oral, 3 h after the first injection of cerulein.
Setting [9] is: 30 mg/kg oral, 6 h after the first injection of cerulein.
Where [10] appears, read: 30 mg/kg oral, 9 h after the first injection of cerulein.
Setting [11] is: 10 mg/kg oral, 7 hours after the first injection of cerulein.

With `NC(=O)C1CN(CCCCC(c2ccc(F)cc2)c2ccc(F)cc2)CCN1CC(=O)Nc1c(Cl)cc(N)cc1Cl` (stereo not drawn) [Compound R75231], the “action of inhibiting adenosine uptake” value in the series on adenosine uptake is given as “have an action of inhibiting adenosine uptake”.

As to `NC(=O)C1CN(CCCCC(c2ccc(F)cc2)c2ccc(F)cc2)CCN1CC(=O)Nc1c(Cl)cc(N)cc1Cl` (stereo not drawn) [Compound 2, 2-Aminocarbonyl-N-(4-amino-2,6-dichlorophenyl)-4-[5,5-bis(4-fluorophenyl)pentyl]-1-piperazine acetamide], the “Serum GPT” value in series [1] (setting [2]) was determined as 55 ± 2 IU/L; in series [1] (setting [3]), 59 ± 6 IU/L; in series [1] (setting [4]) it was 129 ± 23 IU/L. Also, the values for the Serum amylase in series [1] (setting [2]), in series [1] (setting [3]) and in series [1] (setting [4]) were 4967 ± 291 IU/L, 4417 ± 305 IU/L and 9517 ± 23 IU/L, respectively. The Serum lipase is on record as 238 ± 9 IU/L in series [1] (setting [2]), 217 ± 51 IU/L in series [1] (setting [3]) and 726 ± 23 IU/L in series [1] (setting [4]). Also, the “minimum lethal dose (MLD)” value in the series with dd-strain male mice (intraperitoneal dosing) was “greater than 100 mg/kg”; in the series on dd-strain male mice (oral dosing) it was “greater than 300 mg/kg”.

Take `COc1cc(C(=O)OCCCN2CCCN(CCCOC(=O)c3cc(OC)c(OC)c(OC)c3)CC2)cc(OC)c1OC` [dilazep]: the “action of inhibiting adenosine uptake” value with adenosine uptake is recorded as “have an action of inhibiting adenosine uptake”.

As for `COc1cc(C(=O)OCCCN(C)CCN(C)CCCOC(=O)c2cc(OC)c(OC)c(OC)c2)cc(OC)c1OC` [hexobendine], the “action of inhibiting adenosine uptake” value in the series with adenosine uptake is listed as “have an action of inhibiting adenosine uptake”.

In the case of `CCOc1cc2nc(N3CCOCC3)nc(N3CCC(n4c(=O)c5cc(C)ccc5n(C)c4=O)CC3)c2cc1OCC` [Compound 1, 3-[1-(6,7-Diethoxy-2-morpholino-4-quinazolynyl)-4-piperidinyl]-1,2,3,4-tetrahydro-1,6-dimethyl-2,4-dioxoquinazoline hydrochloride salt], the “Serum GPT” value in series [1] (setting [5]) was 37 ± 3 IU/L; in series [1] (setting [6]), 50 ± 3 IU/L; in series [1] (setting [7]), 76 ± 5 IU/L; in series [1] (setting [8]) it was 32 ± 3 IU/L; in series [1] (setting [9]) it was 51 ± 6 IU/L; in series [1] (setting [10]), 52 ± 5 IU/L. Besides, the Serum amylase is given as 4283 ± 245 IU/L in series [1] (setting [5]); 4967 ± 167 IU/L in series [1] (setting [6]); 14817 ± 1459 IU/L in series [1] (setting [7]); 4133 ± 264 IU/L in series [1] (setting [8]); 5200 ± 274 IU/L in series [1] (setting [9]); 5658 ± 682 IU/L in series [1] (setting [10]). In addition, the Serum lipase in series [1] (setting [5]) was found to be 55 ± 3 IU/L; in series [1] (setting [6]), 91 ± 22 IU/L; in series [1] (setting [7]), 466 ± 74 IU/L; in series [1] (setting [8]), 58 ± 5 IU/L; in series [1] (setting [9]), 81 ± 8 IU/L; in series [1] (setting [10]) it was 95 ± 15 IU/L. For the same compound, the “minimum lethal dose (MLD)” value in the series with dd-strain male mice (intraperitoneal dosing) was “greater than 100 mg/kg”; in the series with dd-strain male mice (oral dosing), “greater than 1000 mg/kg”.

Regarding `OCCN(CCO)c1nc(N2CCCCC2)c2nc(N(CCO)CCO)nc(N3CCCCC3)c2n1` [dipyridamole], in the series with adenosine uptake, the “action of inhibiting adenosine uptake” value is on record as “have an action of inhibiting adenosine uptake”.

As for `Cc1cccc(C)c1NC(=O)CN1CCN(CCCC(c2ccc(F)cc2)c2ccc(F)cc2)CC1` [lidoflazine], the “action of inhibiting adenosine uptake” value with adenosine uptake is “have an action of inhibiting adenosine uptake”.

For the compound `CCOc1cc2c(N3CCC(n4c(=O)c5cc(C)ccc5n(C)c4=O)CC3)nc(N3CCOCC3)nc2cc1OCCO` [Compound 4, 3-[1-[6-ethoxy-7-(2-hidroxyethyl)oxy-2-morpholino-4-quinazolynyl]-4-piperidinyl]-1,2,3,4-tetrahydro-1,6-dimethyl-2,4-dioxoquinazoline], in series [1] (10 mg/kg oral, 7 hours after the first injection of cerulein, P-AMY assay), the “Serum Amirase” value came out at 14690 ± 922 IU/l. Besides, in series [1] (setting [11]), the “Serum GPT” value was 67 ± 2 IU/l and the “Serum lipase” value is given as 195 ± 23 IU/l.

As to `NC(=O)C1CN(Cc2nc(-c3ccccc3)c(-c3ccccc3)o2)CCN1CC(=O)Nc1c(Cl)cc([N+](=O)[O-])cc1Cl` (stereo not drawn) [Compound 3, 2-Aminocarbonyl-N-(2,6-dichloro-4-nitrophenyl)-4-[(4,5-diphenyl-2-oxazolyl)methyl]-1-piperazine acetamide . dihydrochloride salt], in series [1] (setting [8]), the “Serum GPT” value was determined as 64 ± 11 IU/L, the Serum amylase was found to be 4050 ± 309 IU/L and the Serum lipase came out at 243 ± 40 IU/L. For the same compound, in series [1] (setting [9]), the “Serum GPT” value stood at 40 ± 1 IU/L, the Serum amylase is recorded as 3733 ± 149 IU/L and the Serum lipase is on record as 135 ± 6 IU/L. In series [1] (setting [10]), the “Serum GPT” value is listed as 59 ± 7 IU/L, the Serum amylase is 3958 ± 146 IU/L and the Serum lipase is reported as 200± 13 IU/L.
